The values that follow come from US11866405B2, “Substituted indazoles as IRAK4 inhibitors” (AstraZeneca AB, priority 2020, dated 2024).

Assay [1] has as its target human recombinant IRAK4 protein (Homo sapiens (Human), UniProt Q9NWZ3). Nature of the assay: IRAK4 enzyme assay (mass spectrometry readout). The settings on record: 3 mM ATP, 0.2 nM enzyme; geometric mean of at least n=2, * single experiment. It counts as biochemical. An outline of the steps:
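0.2 nM IRAK4 preincubated 15 min at room temperature with compound (10-point half-log series, top 1 μM or 10 μM) in pH 7.4 Tris buffer with 3 mM ATP; 10 μM peptide substrate added, 2 h at room temperature, formic acid stop. Phospho/unphospho peptide ratio by LC-MS/MS; potency from curve fit, geometric mean of n≥2 or single run.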

In assay [2] the target is IRAK4 auto-phosphorylation (Homo sapiens (Human), UniProt Q9NWZ3). Nature of the assay: IRAK4 phosphorylation cell assay in IL-1β-stimulated Karpas-299 cells. It counts as cell-based. The settings on record: IL-1β 22.7 ng/mL, pIRAK4 (Thr345/Ser346), geometric mean of at least 2 experiments. An outline of the steps: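 Karpas-299 cells were preincubated 1 h at 37 °C with compound (10-point half-log series, top 30 μM), then stimulated 10 min with 22.7 ng/mL IL-1β. Cells were fixed and stained for pIRAK4 (Thr345/Ser346), and per-cell fluorescence was quantified by high-content imaging. IC50 values are geometric means of at least 2 experiments.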
IRAK4 auto-phosphorylation, sequence (Q9NWZ3 whole entry): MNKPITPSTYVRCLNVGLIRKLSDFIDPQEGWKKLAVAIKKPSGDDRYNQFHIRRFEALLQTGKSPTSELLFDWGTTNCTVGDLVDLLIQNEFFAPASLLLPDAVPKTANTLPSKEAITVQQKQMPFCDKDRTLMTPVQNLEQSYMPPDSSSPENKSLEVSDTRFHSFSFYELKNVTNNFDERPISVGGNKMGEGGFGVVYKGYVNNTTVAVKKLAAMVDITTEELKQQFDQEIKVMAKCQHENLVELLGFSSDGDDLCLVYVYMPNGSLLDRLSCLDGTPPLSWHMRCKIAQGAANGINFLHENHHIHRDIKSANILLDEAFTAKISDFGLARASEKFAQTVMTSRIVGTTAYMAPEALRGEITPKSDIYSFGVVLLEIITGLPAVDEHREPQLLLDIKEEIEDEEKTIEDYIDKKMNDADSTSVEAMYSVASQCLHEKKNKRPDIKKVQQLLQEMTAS

human recombinant IRAK4 protein, sequence (Q9NWZ3 whole entry): as above

The IC50 is the concentration that gives 50% inhibition. For the compound `CC(=O)N1CC2(CC[C@@H](n3cc4cc(C(=O)Nc5cnn6cccnc56)c(OC5CC5)cc4n3)[C@H](C)C2)C1` (single isomer, unassigned) [Example 28], the IC50 in assay [1] stood at 3 nM; in assay [2], 161 nM.
For `COc1cc2nn([C@H]3CCC[C@@H](O)[C@@H]3C)cc2cc1C(=O)Nc1cnc2cccnn12` (single isomer, unassigned) [Example 108] the same measures were 0.4 nM and 16 nM.
Taken in the same sequence, the figures for `CO[C@H]1C[C@@H](Oc2cc3nn(C4CCC5(CC4)CN(C(C)=O)C5)cc3cc2C(=O)Nc2cnc3cccnn23)C1` [Example 101, 2-(2-Acetyl-2-azaspiro[3.5]nonan-7-yl)-N-(imidazo[1,2-b]pyridazin-3-yl)-6-((1s,3s)-3-methoxycyclobutoxy)-2H-indazole-5-carboxamide] were under 0.4 nM and 31 nM.
Taken in the same sequence, the figures for `COc1cc2nn([C@@H]3CC[C@H](O)C[C@H]3C)cc2cc1C(=O)Nc1cnc2cccnn12` [Example 88, 2-((1R,2R,4S)-4-hydroxy-2-methylcyclohexyl)-N-(imidazo[1,2-b]pyridazin-3-yl)-6-methoxy-2H-indazole-5-carboxamide] were 1.3 nM and 44 nM.
Regarding `COc1cc2nn([C@H]3CCC(N(C)C(C)=O)C[C@@H]3C)cc2cc1C(=O)Nc1cnn2cccnc12` (single isomer, unassigned) [Example 63, 6-methoxy-2-((1S,2S,4R*)-2-methyl-4-(N-methylacetamido)cyclohexyl)-N-(pyrazolo[1,5-a]pyrimidin-3-yl)-2H-indazole-5-carboxamide], the figures for the 50% inhibitory concentration (IC50) in assay [1] and in assay [2] were 46.8 nM and 338 nM, respectively.
For `COc1cc2nn([C@H]3CCC[C@](C)(O)C3)cc2cc1C(=O)Nc1cnn2cccnc12` (single isomer, unassigned) [Example 53] the same measures were 3.5 nM and 49 nM.
For `COc1cc2nn(C3CCC4(CC3)COCC(=O)N4C)cc2cc1C(=O)Nc1cnn2cccnc12` (single isomer, unassigned) [Example 119, 6-Methoxy-2-(1-methyl-2-oxo-4-oxa-1-azaspiro[5.5]undecan-9-yl)-N-(pyrazolo[1,5-a]pyrimidin-3-yl)-2H-indazole-5-carboxamide] the same measures were 0.5 nM and 16 nM.
For `COc1cc2nn([C@H]3CCC[C@@](C)(O)C3)cc2cc1C(=O)Nc1cnn2cccnc12` (single isomer, unassigned) [Example 50] the same measures were 3.4 nM and 84 nM.
`COc1cc2nn([C@H]3CC[C@H](N(C)C(=O)C4CC4)CC3)cc2cc1C(=O)Nc1cnn2cnccc12` [Example 96, 6-Methoxy-2-((1r,4r)-4-(N-methylcyclopropanecarboxamido)cyclohexyl)-N-(pyrazolo[1,5-c]pyrimidin-3-yl)-2H-indazole-5-carboxamide]: the IC50 was 0.5 nM in assay [1] and 15 nM in assay [2].
As to `COc1cc2nn([C@H]3CC[C@H](N(C)C(=O)C(C)(C)O)CC3)cc2cc1C(=O)Nc1cnn2cnccc12` [Example 99, 2-((1r,4r)-4-(2-Hydroxy-N,2-dimethylpropanamido)cyclohexyl)-6-methoxy-N-(pyrazolo[1,5-c]pyrimidin-3-yl)-2H-indazole-5-carboxamide], the results for the IC50 in assay [1] and in assay [2] were 1.2 nM and 35 nM, respectively.
Taken in the same sequence, the figures for `COc1cc2nn([C@H]3CC[C@@H](NC(=O)C4CC4)CC3)cc2cc1C(=O)Nc1cnn2cnccc12` [Example 27, 2-((1s,4s)-4-(Cyclopropanecarboxamido)cyclohexyl)-6-methoxy-N-(pyrazolo[1,5-c]pyrimidin-3-yl)-2H-indazole-5-carboxamide] were 4.4 nM and 67 nM.
For `C[C@H]1C[C@H](O)CC[C@@H]1n1cc2cc(C(=O)Nc3cnn4cccnc34)c(OC3CC3)cc2n1` (relative stereo) [Example 43, rel-6-Cyclopropoxy-2-(1S,2S,4R)-4-hydroxy-2-methylcyclohexyl)-N-(pyrazolo[1,5-a]pyrimidin-3-yl)-2H-indazole-5-carboxamide] the same measures were 1.8 nM and 101 nM.
For `COc1cc2nn([C@H]3CC[C@H](N(C)C(=O)[C@@H]4CC[C@H](O)C4)CC3)cc2cc1C(=O)Nc1cnn2cccnc12` (relative stereo) [Example 114] the same measures were 0.7 nM and 16 nM.
Regarding `COc1cc2nn([C@H]3CC[C@@H](N(C)C(C)=O)CC3)cc2cc1C(=O)Nc1cnc2cccnn12` [Example 22, N-(Imidazo[1,2-b]pyridazin-3-yl)-6-methoxy-2-((1s,4s)-4-(N-methylacetamido)cyclohexyl)-2H-indazole-5-carboxamide], the IC50 in assay [1] came out at 5.1 nM; in assay [2] it was 268 nM.
Taken in the same sequence, the figures for `COc1cc2nn([C@H]3CC[C@H](N(C)C(=O)N4CC[C@H](O)C4)CC3)cc2cc1C(=O)Nc1cnc2cccnn12` [Example 116, 2-((1S,4r)-4-((S)-3-Hydroxy-N-methylpyrrolidine-1-carboxamido)cyclohexyl)-N-(imidazo[1,2-b]pyridazin-3-yl)-6-methoxy-2H-indazole-5-carboxamide] were 0.3 nM and 13 nM.
For `COc1cc2nn(C3CCC(N(C)C(=O)C4CC(O)C4)CC3)cc2cc1C(=O)Nc1cnn2cnccc12` [Example 98, 2-((1R,4r)-4-((1s,3S)-3-hydroxy-N-methylcyclobutane-1-carboxamido)cyclohexyl)-6-methoxy-N-(pyrazolo[1,5-c]pyrimidin-3-yl)-2H-indazole-5-carboxamide] the same measures were 0.6 nM and 20 nM.
For `COc1cc2nn(C3CCC4(CC3)CC(C)(O)C4)cc2cc1C(=O)Nc1cnc2cccnn12` (single isomer, unassigned) [Example 6, 2-(2-Hydroxy-2-methylspiro[3.5]nonan-7-yl)-N-(imidazo[1,2-b]pyridazin-3-yl)-6-methoxy-2H-indazole-5-carboxamide], the IC50 is 0.7 nM in assay [1] and 44 nM in assay [2].
Taken in the same sequence, the figures for `COc1cc2nn([C@@H]3CCC(N(C)C(C)=O)C[C@H]3C)cc2cc1C(=O)Nc1cnn2cccnc12` (single isomer, unassigned) [Example 60] were 0.8 nM and 21 nM.
For `COc1cc2nn([C@@H]3CC[C@H](O)[C@@H](C)C3)cc2cc1C(=O)Nc1cnc2cccnn12` (single isomer, unassigned) [Example 82] the same measures were 2.4 nM and 27 nM.
